Test results: patent US4552864A, “Gonadoliberin derivatives process for the preparation and pharmaceutical compositions thereof” (Reanal Finomvegyszergyar, priority 1982, dated 1985)
Like-named read-outs stand apart in the source and are kept apart here.

Tested on: adenohypophysis of female Sprague-Dawley rats (cell cultures), LH-hormone released from the cells
Conditions: for ED50 (LH release): rat pituitary cell culture, 4 hours incubation with 10^-7 to 10^-12 molar peptide; for relative activity (GnRH = 1.00): relative LH-releasing activity versus GnRH, from ED50 values
Description: The LH-releasing activity of the new peptides according to the invention was tested by the following method, in which for comparison the known gonadoliberin was employed under the same conditions.
The adenohypophysis of female Sprague-Dawley rats weighing 150-200 g each was eliminated and pretrypsinized. Approximately 40-50 pituitaries were placed into separate flasks and allowed to stand in 25 ml of a 0.25% trypsin solution (Sigma, type 111) at 0° to 4° C. for 16 hours. The pituitaries were then stirred under a 5% CO2 atmosphere at 37° C. for 20-25 minutes while they were decomposed to their cells. To the cell suspension soya-bean trypsin inhibitor was added whereupon it was suspended and centrifuged in a Medium 199 solution (with Earle's salts, Flow Laboratories, UK) three times (800 x g, 10 minutes). The cell suspension was padded through a sterile metal filter and the number of cells in one ml was counted. After counting, 3 ml of the cell suspension was dispensed into culture flasks each containing 1.8×10^6 cells. The cells were cultured for 3 days at 37° C. under a 5% CO2 atmosphere. On the 3rd day the medium was replaced by a fresh one and incubation was continued for one more day. On the 4th day the medium was changed again and a medium containing a 10^-7 to 10^-12 molar solution of the peptides to be tested was added to the cell cultures. The cells were incubated with the peptide solutions for 4 hours, the culture solutions were eliminated and the amount of the LH-hormone released from the cells was determined by radioimunoassay.

| Substance | ED50 (LH release) [nM] | relative activity (GnRH = 1.00) | ED50 (LH release) (unit as printed for GnRH) [nM] |
| --- | --- | --- | --- |
| Glp-His-Trp-Ser-Tyr-D-Cpa-Leu-Arg-Pro-Gly-NH2 [D-Cpa^6 -GnRH] | 0.02063 | 16.6 | – |
| Glp-His-Trp-Ser-Tyr-D-Thx-Leu-Arg-Pro-Gly-NH2 [D-Thx^6 -GnRH] | 0.02892 | 11.9 | – |
| Gonadoliberin [GnRH, reference compound] | – | 1.00 | 0.343 |
